Laboratory results as given in article PMC10385579, “Design, Synthesis, and Biological Evaluation of Indole-2-carboxamides as Potential Multi-Target Antiproliferative Agents” (Pharmaceuticals, 2023).

System: Bcl-2
Test: Bcl-2 level assay in A-549 cells
Format: cell-based, human
Details: for Bcl-2 Conc: control 5; for Bcl-2 Fold Reduction: vs control
Experimental: Compounds Va and Vg were explored further for their impact on caspase-8, Bax, and Bacl-2 levels against a human epithelial cancer cell line (A-549) using doxorubicin as a reference. See Supplementary Materials. […]
4.2.8. Bcl-2inhibition assay
Mix all reagents thoroughly without foaming before use. Wash the microwells twice with approximately 300 μL Wash Buffer per well with thorough aspiration of microwell contents between washes. Take caution not to scratch the surface of the microwells. After the last wash, empty the wells and tap microwell strips on absorbent pad or paper towel to remove excess Wash Buffer. Use the microwell strips immediately after washing or place upside down on a wet absorbent paper for not longer than 15 minutes. […] Add 100 μL of Sample […]
Diluent in duplicate to all standard wells and to the blank wells. Prepare standard (1:2 dilution) in duplicate ranging from 32 ng/mL to 0.5 ng/mL. Add 100 μL of Sample Diluent, in duplicate, to the blank wells. Add 80 μL of Sample Diluent, in duplicate, to the sample wells. Add 20 μL of each Sample, in duplicate, to the designated wells. Add 50 μL of diluted biotin-conjugate to all wells, including the blank wells. Cover with a plate cover and incubate at room temperature, on a microplate shaker at 100 rpm if available, for 2 hours. Remove plate cover and empty the wells.
Wash microwell strips 3 times as described in step 2. Add 100 μL of diluted Streptavidin-HRP to all wells, including the blank wells. Cover with a plate cover and incubate at room temperature, on a microplate shaker at 100 rpm if available, for 1 hour. Remove plate cover and empty the wells.
Wash microwell strips 3 times as described in step 2. Proceed to the next step. Pipette 100 μl of mixed TMB Substrate Solution to all wells, including the blanks. Incubate the microwell strips at room temperature (18° to 25°C) for about 15 minutes, if available on a rotator set at 100 rpm.
Avoid direct exposure to intense light. The point, at which the substrate reaction is stopped, is often determined by the ELISA reader. Many ELISA readers record absorbance only up to 2.0
O.D. Therefore, the color development within individual microwells must be watched by the person running the assay and the substrate reaction stopped before positive wells are no longer properly detectable. Stop the enzyme reaction by quickly pipetting 100 μL of Stop Solution into each well, including the blank wells. It is important that the Stop Solution is spread quickly and uniformly throughout the microwells to completely inactivate the enzyme. Results must be read immediately after the Stop Solution is added or within one hour if the microwell strips are stored at 2 - 8°C in the dark. Read absorbance of each microwell on a spectrophotometer using 450 nm as the primary wavelength.

O=C(NCC(c1ccccc1)c1c(-c2ccccc2)[nH]c2ccccc12)c1cc2cc(Cl)ccc2[nH]1 (stereo not shown) [Compound Va, 5-Chloro-N-(2-phenyl-2-(2-phenyl-1H-indol-3-yl)ethyl)-1H-indole-2-carboxamide]
Bcl-2 Conc: 0.75 ng/mL | Bcl-2 Fold Reduction: 7

CO/C=C/c1c(C(=O)NCC(c2ccccc2)c2c(-c3ccccc3)[nH]c3ccccc23)[nH]c2ccc(Cl)cc12 (stereo not shown) [Compound Vg, (E)-5-Chloro-3-(2-methoxyvinyl)-N-(2-phenyl-2-(2-phenyl-1H-indol-3-yl)ethyl)-1H-indole-2-carboxamide]
Bcl-2 Conc: 0.85 ng/mL | Bcl-2 Fold Reduction: 6
